According to paper PMC7156724, “Potent BRD4 inhibitor suppresses cancer cell-macrophage interaction” (Nature Communications, 2020):
Several values for one entry are separate records, joined by “and”; a condition that tells them apart may be missing. Identical values can stand only once.

Experiments:
[1] = Body weight change of H526 SCLC tumor bearing mice; conditions: for Mouse body weight changes (%) from Day 0: 3mg/kg, QDx21D, 3 mg/kg
[2] = test system: H526 tumors; assay: Immunofluorescent staining of cleaved caspase 3 and Ki67 in H526 tumors; assay type: in vivo, mouse; conditions: treated H526 tumors, independent images
Protocol: Immunofluorescence staining of tumor sections was performed according to the manufacturer’s instructions. Slides were imaged using a Zeiss Axiovert 200 fluorescence microscope (Carl Zeiss MicroImaging; Thornwood, NY), and images were captured using Openlab3 software (Imprecision, Lexington, MA). Cleaved caspase 3, Ki67, CSF1, and CD68 positive cells were counted with ImageJ version 1.52s[58].
Supplementary Figure 10. NHWD-870 increased tumor apoptosis and inhibite d tumor proliferation.
(a,b) Immunofluorescent staining of cleaved caspase 3 (apoptotic cells, red) and E-Cadherin (cancer cells, […]
green) in vehicle, NHWD-870 or BMS-986158 treated H526 tumors from Figure 4a. Shown are […]
representative images of cleaved caspase 3 positive cells (a) and quantification of cleaved caspase 3 positive […]
cells (b). Scale bar is 30 μm. Data are presented as mean ± SEM from 6 independent images. p values were […]
calculated using two-tailed, unpaired t tests. **, p<0.01; ***, p<0.001. (c,d) Immunofluorescent staining of […]
Ki67 (proliferating cells, red) and E-Cadherin (cancer cells, green) in vehicle, NHWD-870 or BMS-986158 […]
treated H526 tumors from (Figure 4a). Shown are representative images of Ki67 positive cells (c) and […]
quantification of Ki67 positive cells (d). Scale bar is 30 μm. […]
independent images. p values were calculated using two-tailed, unpaired t tests. *, p<0.05; ***, p<0.001. […]

[3] = test system: MDA-MB231 triple negative breast cancer (TNBC) cells; assay: AlamarBlue assay, MDA-MB231; assay type: cell-based, human; conditions: for Cellular activity in TNBCs (MDA-MB231), alamarBlue: Fig.1f, replicates
In short: (§1)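 BRD4 (BD1+BD2) binding to acetylated histone H4 was measured with a TR-FRET kit per the kit protocol. For the AlamarBlue assays, MDA-MB231, NCI-H211 and A375 cells were plated at ~30% confluence, adhered overnight and treated. Resazurin (0.3 mg/ml reagent) was added for 18 h and fluorescence read at ex 530/em 590 nm.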

[4] = test system: NCI-H211 small cell lung cancer (SCLC) cells; assay: AlamarBlue assay, NCI-H211; assay type: cell-based; conditions: for Cellular activity in SCLCs (H211), alamarBlue: Fig.1e, replicates
In short: as §1

[5] = test system: A375 human melanoma; assay: A375 human melanoma xenograft tumor growth; assay type: in vivo, mouse
Source text: PO, oral administration; QD, once daily; BID, twice daily. b–d Tumor growth curves for A2780 ovarian tumor (n = 5) (b), TMD8 large B cell lymphoma (n = 6) (c), and B16F10 melanoma (n = 5) (d) bearing mice treated with the indicated compounds once daily for 11-21 days. e, f Tumor growth curves for A375 melanoma (n = 6) (e), and patient-derived xenograft (PDX) of melanoma (n = 5) (f) bearing mice treated with the indicated compounds once daily (5 days on, 2 days off) for 21 days. For d–f, NHWD-870 used is NHWD-870-HCl synthesized using Suzuki coupling route. Data are presented as mean ± SEM in (a, b, d, f) and mean + SEM in (c, e). p values were calculated using two-tailed, unpaired t tests. *p < 0.05; **p < 0.01; ***p < 0.001. Source data are provided as a Source Data file.
4–6 weeks old female BALB/c nude mice were used for most experiments, with the exception of 6–8 weeks old female C57BL/6 mice were used for B16F10 experiments, and 6–8 weeks old male BALB/c nude mice and SD rats were used for pharmacokinetic experiments. All animals were purchased from Shanghai SIPPR-Bk Lab Animal Co., Ltd. All animals were housed under a regimen of 12 h light/12 h dark cycles and specific pathogen-free conditions. 5×10^6 NCI-H526, ES-2, MDA-MB231, A2780, A375, B16F10, and TMD-8 cells (0.1 ml) were injected subcutaneously into female nude mice. The melanoma patient-derived xenograft model was derived from a human melanoma sample (BRAF, NARS and NF1 wild type, and p53 mutant) removed from a patient in Xiangya Hospital. Surgically removed tumor fragments were implanted subcutaneously into female NSG mice. When the tumors grew to ~1000 mm^3, they were harvested and cryopreserved or immediately re-implanted for expansion or experiments. Mouse body weight and tumor sizes were measured every 3 days. Once the tumors grew to 150–200 mm^3, mice were treated with the compounds as described in the Figures. 1 × 10^6 A2780 cells (1 ml) were injected into the abdominal cavity of nude mice. Ascitic volume and tumor weight were measured by an electronic balance. All the procedures were evaluated and approved by the Institutional Animal Care and Use Committee of Central South University and Yale University. […]
We apologize for not clearly labeling the experiments using compounds synthesized using Suzuki coupling method. In the revised manuscript, we modified the text to clearly mark the animal models in Fig 3d-f were tested using NHWD-870 synthesized using Suzuki […]
compared the activity of NHWD-870 synthesized using Stille coupling route with the NHWD-870 synthesized from Suzuki coupling route (Reviewer Figure 1). […]
activity and possible toxicity were identical.
Reviewer Figure 1 NHWD-870 synthesized through Stille or Suzuki route has similar properties in vivo. Tumor bearing mice were treated with 2mg/kg of the indicated compounds, orally administrated once daily for 21 days. Shown are tumor growth curves (a) and body weight change (b) for A375 melanoma bearing mice. […]
986158 in terms of potency, but apart from with the A375 melanocyte cell line, the advance seems relatively moderate. With such similar compounds, the pharmacokinetic properties and ability to accumulate at the desired site is often more important. Figure S6d (prev. Fig. 3d) in the previous

SMILES: Cc1nnn(C)c1-c1cnc2c3c4cnn(C)c4ccc3n([C@H](c3ccccc3)C3CCOCC3)c2c1 [NHWD-870]
- Body weight change (%) ([1]; 3mg/kg,QD, day 0 and day 20 or the last available data point, individual mice): -7.583% and -7.971% and -2.299% and 0.4517%
- Mouse body weight changes (%) from Day 0 ([1]; Day 3, individual mice): -0.08% and -2.62% and -1.34% and 1.57% and 0.13% and 1.52%
- Mouse body weight changes (%) from Day 0 ([1]; Day 7, individual mice): -7.05% and -0.52% and -4.19% and 1.94% and -3.62% and 0.82%
- Mouse body weight changes (%) from Day 0 ([1]; Day 10, individual mice): -10.82% and -3.48% and 3.84% and -1.13% and -5.35% and 3.04%
- Mouse body weight changes (%) from Day 0 ([1]; Day 14, individual mice): -1.11% and -16.35% and -6.33% and 0.59% and -10.57% and -3.67%
- Mouse body weight changes (%) from Day 0 ([1]; Day 17, individual mice): 3.90% and -4.84% and -5.58% and -1.24% and -10.06% and -0.93%
- Mouse body weight changes (%) from Day 0 ([1]; Day 20, individual mice): 0.45% and -8.20% and -7.58% and -7.97% and -11.87% and -2.30%
- body weight loss ([1]; H526 SCLC tumor bearing mice, 3mg/kg QD): about 6%
- % of KI67 (Ki67 positive cells) [2]: 10% and 8% and 13% and 11% and 6%
- Cellular activity in TNBCs (MDA-MB231), alamarBlue ([3]; concentration 0.15): 49.81 and 46.95
- Cellular activity in TNBCs (MDA-MB231), alamarBlue ([3]; concentration 0.6): 80.07 and 80.02
- Cellular activity in TNBCs (MDA-MB231), alamarBlue ([3]; concentration 1): 86.71 and 86.28
- Cellular activity in TNBCs (MDA-MB231), alamarBlue ([3]; concentration 1.5): 87.88 and 89.64
- Cellular activity in TNBCs (MDA-MB231), alamarBlue ([3]; concentration 2): 89.68 and 91.47
- Cellular activity in TNBCs (MDA-MB231), alamarBlue ([3]; concentration 2.5): 90.92 and 92.15
- Cellular activity in TNBCs (MDA-MB231), alamarBlue ([3]; concentration 3): 92.14 and 92.46
- Cellular activity in TNBCs (MDA-MB231), alamarBlue ([3]; concentration -0.3): 13.41 and 13.25
- Cellular activity in TNBCs (MDA-MB231), alamarBlue ([3]; concentration -0.9): 6.42 and 8.37
- IC50 ([3]; Homo sapiens, MDA-MB-231, 72 h, 72 h treatment, nM, read-out: IC50, cellular activity in MDA-MB231 (alamarBlue)): 1.6 nM
- fold increased potency versus BMS-986158 ([4]; Fig 1e, f): 3 fold
- Cellular activity in SCLCs (H211), alamarBlue ([4]; concentration 0.0169701): 15.41 and 2.82
- Cellular activity in SCLCs (H211), alamarBlue ([4]; concentration 0.0398488): 10.96 and 4.35
- Cellular activity in SCLCs (H211), alamarBlue ([4]; concentration 0.137272): 28.76 and 26.98
- Cellular activity in SCLCs (H211), alamarBlue ([4]; concentration 0.614394): 86.83 and 87.53
- Cellular activity in SCLCs (H211), alamarBlue ([4]; concentration 1.09152): 89.61 and 89.15
- Cellular activity in SCLCs (H211), alamarBlue ([4]; concentration 1.56864): 89.26 and 88.73
- Cellular activity in SCLCs (H211), alamarBlue ([4]; concentration 2.04576): 89.83 and 90.11
- Cellular activity in SCLCs (H211), alamarBlue ([4]; concentration 3): 91.32 and 90.79
- Cellular activity in SCLCs (H211), alamarBlue ([4]; concentration column prints 2.52288): 91.56 and 90.89
- IC50 ([4]; Homo sapiens, NCI-H211, 72 h, 72 h treatment, nM, read-out: IC50, cellular activity in NCI-H211 (alamarBlue)): 2 nM
- fold more potent than JQ1 ([4]; NCI-H211 and MDA-MB231 cells): about 50 fold
- effect on tumor growth ([5]; A375 human melanoma, once daily (5 days on, 2 days off) 21 days, NHWD-870-HCl): very strong tumor inhibitive effects
- activity and possible toxicity, Stille versus Suzuki coupling route ([5]; A375 melanoma bearing mice, 2mg/kg orally once daily for 21 days): identical
